Experimental data published in US20250171432A1, “COMPOUNDS AND METHODS OF USE” (Tango Therapeutics, Inc., priority 2022, published 2025).
pIC50: −log10 of the molar value.

Tests used:
Format in all cases: cell-based
[1] = tested on: SDMA (PRMT5 activity) in HAP1 MTAP-intact cell line; assay: SDMA in-cell western assay, HAP1 MTAP-intact; conditions: SDMA in-cell western, HAP1 MTAP-intact cells, 24 hours compound incubation
[2] = tested on: SDMA (PRMT5 activity) in HAP1 MTAP-deleted cell line; assay: SDMA in-cell western assay, HAP1 MTAP-deleted; conditions: for pIC50 / IC90: SDMA in-cell western, HAP1 MTAP-deleted cells, 24 hours compound incubation; for Hap1 MTAP intact/deleted ratio: ratio of SDMA IC50 in HAP1 MTAP-intact to HAP1 MTAP-deleted cell line
[3] = tested on: HAP1 MTAP-deleted cell line; assay: Viability assay (CellTiter-Glo), HAP1 MTAP-deleted; conditions: HAP1 MTAP-deleted cells, 7 days
Method in brief: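 HAP1 MTAP-deleted and MTAP-intact cells seeded, then dosed next day (n=3, 0.2% DMSO) and grown 7 days. Viability by CellTiter-Glo luminescence, expressed as % of DMSO control per cell line.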

| Compound | pIC50 ([1]; Homo sapiens, HAP1, 24 h) | pIC50 ([2]; Homo sapiens) | IC90 ([2]; Homo sapiens) [nM] | pIC50 [1] | pIC50 [2] | IC90 [2] [nM] | Hap1 MTAP intact/deleted ratio [2] | pIC50 ([3]; Homo sapiens, 168 h) | pIC50 ([1]; Homo sapiens) | pIC50 [3] |
| --- | --- | --- | --- | --- | --- | --- | --- | --- | --- | --- |
| CCc1cc(NC(=O)C(=O)N2C[C@@H](C)CC[C@@H]2c2ccc3oc(C4CCN(C)CC4)nc3c2)cnc1N [Compound 53, N-(6-amino-5-ethylpyridin-3-yl)-2-((2R,5S)-5-methyl-2-(2-(1-methylpiperidin-4-yl)benzo[d]oxazol-5-yl)piperidin-1-yl)-2-oxoacetamide] | – | > 8.30 | < 75 | – | – | – | A (“A” indicates an IC50 ratio greater than or equal to 30 fold) | > 7.00 | < 7.30 | – |
| CCc1cc(NC(=O)C(=O)N2C[C@@H](C)CC[C@@H]2c2ccc3sc(C4=C(C)CN(C)CC4)nc3c2)cnc1N [Compound 84, N-(6-amino-5-ethylpyridin-3-yl)-2-((2R,5S)-2-(2-(1,5-dimethyl-1,2,3,6-tetrahydropyridin-4-yl)benzo[d]thiazol-5-yl)-5-methylpiperidin-1-yl)-2-oxoacetamide] | – | > 8.30 | < 75 | – | – | – | B (“B” indicates an IC50 ratio greater than or equal to 15 fold but lower than 30 fold) | > 7.00 | < 7.30 | – |
| CCc1cc(NC(=O)C(=O)N2C[C@@H](C)CC[C@@H]2c2ccc3sc([C@@H]4C[C@@H]5CN(C)C[C@@H]5C4)nc3c2)cnc1N (single isomer, unassigned) [Compound 111] | < 7.30 | > 8.30 | < 75 | – | – | – | B (“B” indicates an IC50 ratio greater than or equal to 15 fold but lower than 30 fold) | > 7.00 | – | – |
| CCc1cc(NC(=O)C(=O)N2C[C@@H](C)CC[C@@H]2c2ccc3sc(C(C)CN4CCCC4)nc3c2)cnc1N (single isomer, unassigned) [Compound 106] | – | – | – | 7.30 to 8.30 | > 8.30 | < 75 | B (“B” indicates an IC50 ratio greater than or equal to 15 fold but lower than 30 fold) | – | – | > 7.00 |
| CCc1cc(NC(=O)C(=O)N2C[C@@H](C)CC[C@@H]2c2ccc3cn(C4CCN(C)C(C)(C)C4)nc3c2)cnc1N (single isomer, unassigned) [Compound 115] | – | – | – | 7.30 to 8.30 | > 8.30 | < 75 | – | – | – | > 7.00 |
| C[C@H]1CC[C@H](c2ccc3sc(C4CCN(C)CC4)nc3c2)N(C(=O)C(=O)Nc2cnc(F)c(C(N)=O)c2)C1 [Compound 8, 2-fluoro-5-(2-((2R,5S)-5-methyl-2-(2-(1-methylpiperidin-4-yl)benzo[d]thiazol-5-yl)piperidin-1-yl)-2-oxoacetamido)nicotinamide] | < 7.30 | > 8.30 | < 75 | – | – | – | B (“B” indicates an IC50 ratio greater than or equal to 15 fold but lower than 30 fold) | > 7.00 | – | – |
| COc1ncc(NC(=O)C(=O)N2C[C@@H](C)CC[C@@H]2c2ccc3cn(CCN(C)C)nc3c2)cc1C(N)=O [Compound 7, 2-methoxy-5-[[2-oxo-2-[(2R,5S)-2-[2-[2-(dimethylamino)ethyl]indazol-6-yl]-5-methyl-1-piperidyl]acetyl]amino]pyridine-3-carboxamide] | < 7.30 | 7.30 to 8.30 | < 75 | – | – | – | A (“A” indicates an IC50 ratio greater than or equal to 30 fold) | > 7.00 | – | – |
| CCc1cc(NC(=O)C(=O)N2C[C@H](C)CC[C@@H]2c2ccc3sc([C@H]4C[C@H](N(C)C)C4)nc3c2)cnc1N [Compound 119, N-(6-amino-5-ethyl-3-pyridyl)-2-oxo-2-[(2R,5R)-2-[2-[3-(dimethylamino)cyclobutyl]-1,3-benzothiazol-5-yl]-5-methyl-1-piperidyl]acetamide] | < 7.30 | < 7.30 | > 125 | – | – | – | C (“C” indicates an IC50 ratio of less than 15 fold) | < 6.00 | – | – |

Continued, in another order:

| pIC50 ([1]; Homo sapiens, HAP1, 24 h) | pIC50 ([2]; Homo sapiens) | IC90 ([2]; Homo sapiens) [nM] | pIC50 [1] | pIC50 [2] | IC90 [2] [nM] | Compound | Hap1 MTAP intact/deleted ratio [2] | pIC50 ([3]; Homo sapiens, 168 h) | pIC50 ([1]; Homo sapiens) | pIC50 [3] |
| --- | --- | --- | --- | --- | --- | --- | --- | --- | --- | --- |
| < 7.30 | > 8.30 | < 75 | – | – | – | CCc1cc(NC(=O)C(=O)N2C[C@@H](C)CC[C@@H]2c2ccc3sc([C@@H](C)CN4CCCC4)nc3c2)cnc1N [Compound 47] | A (“A” indicates an IC50 ratio greater than or equal to 30 fold) | > 7.00 | – | – |
| < 7.30 | 7.30 to 8.30 | 75 to 125 | – | – | – | CCc1cc(NC(=O)C(=O)N2C[C@@H](C)CC[C@@H]2c2ccc3sc(C4CN(C)CC(=O)N4C)nc3c2)cnc1N (mixture of isomers) [Compound 125, N-(6-amino-5-ethylpyridin-3-yl)-2-((2R,5S)-2-(2-(1,4-dimethyl-6-oxopiperazin-2-yl)benzo[d]thiazol-5-yl)-5-methylpiperidin-1-yl)-2-oxoacetamide] | B (“B” indicates an IC50 ratio greater than or equal to 15 fold but lower than 30 fold) | > 7.00 | – | – |
| 7.30 to 8.30 | > 8.30 | < 75 | – | – | – | CCc1cc(NC(=O)C(=O)N2C[C@@H](C)CC[C@@H]2c2ccc3sc([C@@H]4CCN(C)C[C@H]4OC)nc3c2)cnc1N (single isomer, unassigned) [Compound 101] | B (“B” indicates an IC50 ratio greater than or equal to 15 fold but lower than 30 fold) | > 7.00 | – | – |
| 7.30 to 8.30 | > 8.30 | < 75 | – | – | – | COc1ncc(NC(=O)C(=O)N2C[C@@H](C)CC[C@@H]2c2ccc3sc(C4=CCN(C)CCC4)nc3c2)cc1C(N)=O [Compound 46, 2-methoxy-5-(2-((2R,5S)-5-methyl-2-(2-(1-methyl-2,5,6,7-tetrahydro-1H-azepin-4-yl)benzo[d]thiazol-5-yl)piperidin-1-yl)-2-oxoacetamido)nicotinamide] | B (“B” indicates an IC50 ratio greater than or equal to 15 fold but lower than 30 fold) | > 7.00 | – | – |
| < 7.30 | 7.30 to 8.30 | 75 to 125 | – | – | – | CCc1cc(NC(=O)C(=O)N2C[C@@H](C)CC[C@@H]2c2cccc(OC3CCN(C)C3)c2)cnc1N (mixture of isomers) [Compound 39, N-(6-amino-5-ethylpyridin-3-yl)-2-((2R,5S)-5-methyl-2-(3-((1-methylpyrrolidin-3-yl)oxy)phenyl)piperidin-1-yl)-2-oxoacetamide] | A (“A” indicates an IC50 ratio greater than or equal to 30 fold) | > 7.00 | – | – |
| 7.30 to 8.30 | > 8.30 | < 75 | – | – | – | CCc1cc(NC(=O)C(=O)N2C[C@@H](C)CC[C@@H]2c2ccc3sc([C@H]4CN(C)CC(C)(C)C4)nc3c2)cnc1N (single isomer, unassigned) [Compound 45] | B (“B” indicates an IC50 ratio greater than or equal to 15 fold but lower than 30 fold) | > 7.00 | – | – |
| < 7.30 | 7.30 to 8.30 | < 75 | – | – | – | CCc1cc(NC(=O)C(=O)N2C[C@@H](C)CC[C@@H]2c2ccc3cn([C@H]4CCOC4)nc3c2)cnc1N (racemic) [Compound 93, N-(6-amino-5-ethyl-3-pyridyl)-2-oxo-2-[rac-(2R,5S)-5-methyl-2-(2-tetrahydrofuran-3-ylindazol-6-yl)-1-piperidyl]acetamide] | A (“A” indicates an IC50 ratio greater than or equal to 30 fold) | > 7.00 | – | – |
| < 7.30 | > 8.30 | < 75 | – | – | – | CCc1cc(NC(=O)C(=O)N2C[C@@H](C)CC[C@@H]2c2cccc(OCC3CCCN3C)c2)cnc1N (relative stereo) [Compound 69, N-(6-amino-5-ethyl-3-pyridyl)-2-oxo-2-[(2R,5S)-5-methyl-2-[3-[[rel-(2R)-1-methylpyrrolidin-2-yl]methoxy]phenyl]-1-piperidyl]acetamide] | A (“A” indicates an IC50 ratio greater than or equal to 30 fold) | > 7.00 | – | – |
| < 7.30 | > 8.30 | < 75 | – | – | – | COc1ncc(NC(=O)C(=O)N2C[C@@H](C)CC[C@@H]2c2ccc3sc([C@H](C)CN4CCCC4)nc3c2)cc1C(N)=O [Compound 15, 2-methoxy-5-[[2-oxo-2-[(2R,5S)-5-methyl-2-[2-[(1R)-1-methyl-2-pyrrolidin-1-yl-ethyl]-1,3-benzothiazol-5-yl]-1-piperidyl]acetyl]amino]pyridine-3-carboxamide] | B (“B” indicates an IC50 ratio greater than or equal to 15 fold but lower than 30 fold) | > 7.00 | – | – |
| < 7.30 | 7.30 to 8.30 | < 75 | – | – | – | CCc1cc(NC(=O)C(=O)N2C[C@@H](C)CC[C@@H]2c2ccc3cn(C4CCOCC4)nc3c2)cnc1N [Compound 17, N-(6-amino-5-ethyl-3-pyridyl)-2-oxo-2-[(2R,5S)-5-methyl-2-(2-tetrahydropyran-4-ylindazol-6-yl)-1-piperidyl]acetamide] | A (“A” indicates an IC50 ratio greater than or equal to 30 fold) | > 7.00 | – | – |
| 7.30 to 8.30 | > 8.30 | < 75 | – | – | – | CCc1cc(NC(=O)C(=O)N2C[C@@H](C)CC[C@@H]2c2ccc3sc([C@@H]4CN(C)C(C)(C)C4)nc3c2)cnc1N (single isomer, unassigned) [Compound 56] | B (“B” indicates an IC50 ratio greater than or equal to 15 fold but lower than 30 fold) | > 7.00 | – | – |
